{"source": "patent US11452686B2", "about": "“Cosmetic active substance obtained through bioconversion by Lactobacillus arizonensis of its original substrate, method for obtaining same composition comprising same, and uses” (SOCIETE INDUSTRIELLE LIMOUSINE D'APPLICATION BIOLOGIQUE, priority 2019, dated 2022)", "assay_type_in_all_cases": "cell-based", "key": {"[1]": {"system": "filaggrin", "assay": "Filaggrin synthesis by immunostaining on normal human keratinocytes subjected to a dry environment", "procedure": "Thus, the use of an active substance according to the invention makes it possible to restore the epidermal differentiation process in order to obtain a cohesive structure. The second study on the keratinocytes makes it possible to compare the effect of the products of the various examples 1 to 5. To do this, their capacity to restore the synthesis of filaggrin by human keratinocytes subjected to a dry environment is compared. This study was carried out by immunocytology on normal human keratinocytes subjected to a dry environment. The procedure is as follows:\nNormal human keratinocytes are seeded and incubated at 37° C. in an atmosphere containing 5% CO2 for several days.\nThen, the keratinocytes are either incubated at 37° C. under 5% CO2 in an environment of 40% relative humidity in order to mimic a dry environment, or they are kept in an environment that is saturated with humidity (82% relative humidity) in the presence or absence of the products of examples 1 to 5 or in the presence of a sodium lactate solution at 45 g/L (pH 5.4).\nAfter 24 h, immunostaining is performed using an anti-filaggrin primary antibody and a coupled secondary antibody, Alexa Flor® 488.\nThe nuclei are stained with a DAPI solution.\nViewing is performed using an IX 70 microscope (Olympus) coupled to an image analysis system (NIS-Elements software, Nikon).\nThe synthesized filaggrin is proportional to the intensity of green fluorescence present on the keratinocytes. A quantitative analysis of the images was performed using Matlab® software. The results are expressed in arbitrary units (AU) in Table 6 (Effect of the various examples on their ability to restore the synthesis of filaggrin in human keratinocytes subjected to water stress)."}, "[2]": {"system": "HAS-2 (hyaluronan synthase 2)", "assay": "HAS-2 mRNA expression by quantitative PCR on normal human fibroblasts", "settings": "10 ng/mL (positive control)", "procedure": "(§1) This study was carried out by PCR on normal human fibroblasts.\n(§2) I. Culturing and Treatment of Fibroblasts: • Normal human fibroblasts are inoculated into a culture medium and then incubated at 37° C. in an atmosphere containing 5% CO2. • Then, the fibroblasts are cultured in the presence or absence of the active substance of example 1 at 0.5% and 1% (V/V).\n(§3) TGF-β at 10 ng/mL is used as a positive control. Finally, the fibroblasts are recovered and the total RNAs extracted.\n(§4) The RNAs were reverse-transcribed, and the complementary DNAs obtained were analyzed by the quantitative PCR technique. The mRNAs of the RPS18 protein, internal reference control, were analyzed in parallel with the mRNAs of Coll I, Coll III, Coll IV, Coll VII and HAS-2.\n(§5) The quantification of the incorporation of fluorescence (SYBR Green) is measured continuously using a thermal cycler. The RQ (relative quantification) analysis is performed using software."}, "[3]": {"system": "Collagen VII", "assay": "Collagen VII mRNA expression by quantitative PCR on normal human fibroblasts", "settings": "10 ng/mL (positive control)", "procedure": "as §1, §2, §3, §4, §5"}, "[4]": {"system": "Collagen IV", "assay": "Collagen IV mRNA expression by quantitative PCR on normal human fibroblasts", "settings": "10 ng/mL (positive control)", "procedure": "as §1, §2, §3, §4, §5"}, "[5]": {"system": "Collagen I", "assay": "Collagen I mRNA expression by quantitative PCR on normal human fibroblasts", "settings": "10 ng/mL (positive control)", "procedure": "as §1, §2, §3, §4, §5"}, "[6]": {"system": "Collagen III", "assay": "Collagen III mRNA expression by quantitative PCR on normal human fibroblasts", "settings": "10 ng/mL (positive control)", "procedure": "as §1, §2, §3, §4, §5"}}, "data": [{"compound": "CC(O)C(=O)[O-].[Na+]", "note": "(stereo not drawn) [Sodium lactate]", "values": [{"measurement": "Restoration of filaggrin synthesis (in words)", "setting": "[1]; human keratinocytes subjected to water stress", "value": "does not restore filaggrin synthesis"}, {"measurement": "Synthesis of filaggrin", "setting": "[1]; keratinocytes, water stress (40% relative humidity), 24 h, product at 0.5%", "value": 909, "unit": "AU"}, {"measurement": "Ability to restore filaggrin synthesis", "setting": "[1]; keratinocytes, water stress, product at 0.5%", "value": 7, "unit": "%"}]}, {"compound": "TGF-β", "values": [{"measurement": "HAS-2 Expression", "setting": "[2]", "value": 78, "unit": "%"}, {"measurement": "Collagen VII Efficacy/control", "setting": "[3]", "value": "+234%"}, {"measurement": "Collagen VII Expression", "setting": "[3]", "value": 334, "unit": "%"}, {"measurement": "Collagen IV Efficacy/control", "setting": "[4]", "value": "+218%"}, {"measurement": "Collagen IV Expression", "setting": "[4]", "value": 318, "unit": "%"}, {"measurement": "Collagen I Efficacy/control", "setting": "[5]", "value": "+126%"}, {"measurement": "Collagen I Expression", "setting": "[5]", "value": 226, "unit": "%"}, {"measurement": "Collagen III Efficacy/control", "setting": "[6]", "value": "+39%"}, {"measurement": "Collagen III Expression", "setting": "[6]", "value": 139, "unit": "%"}]}]}
